Values of other authors, collected in patent US20170007591A1, “Composition to Mitigate Spikes in Blood Sugar” (Panacea Scientific, Inc., priority 2015, published 2017).

Assays:
μ-opioid receptor = μ-opioid receptor (Homo sapiens, UniProt P35372); conditions: acts as non-selective antagonist
δ-opioid receptor = δ-opioid receptor (Homo sapiens, UniProt P41143); conditions: acts as non-selective antagonist
κ-opioid receptor = κ-opioid receptor (Homo sapiens, UniProt P41145); conditions: acts as non-selective antagonist
CYP2C9 = CYP2C9 (Homo sapiens, UniProt P11712); conditions: in humans
[1] = rats; 20 mg piperine dose with 2 g/kg dose of curcumin

Chain of CYP2C9 (P11712 whole entry): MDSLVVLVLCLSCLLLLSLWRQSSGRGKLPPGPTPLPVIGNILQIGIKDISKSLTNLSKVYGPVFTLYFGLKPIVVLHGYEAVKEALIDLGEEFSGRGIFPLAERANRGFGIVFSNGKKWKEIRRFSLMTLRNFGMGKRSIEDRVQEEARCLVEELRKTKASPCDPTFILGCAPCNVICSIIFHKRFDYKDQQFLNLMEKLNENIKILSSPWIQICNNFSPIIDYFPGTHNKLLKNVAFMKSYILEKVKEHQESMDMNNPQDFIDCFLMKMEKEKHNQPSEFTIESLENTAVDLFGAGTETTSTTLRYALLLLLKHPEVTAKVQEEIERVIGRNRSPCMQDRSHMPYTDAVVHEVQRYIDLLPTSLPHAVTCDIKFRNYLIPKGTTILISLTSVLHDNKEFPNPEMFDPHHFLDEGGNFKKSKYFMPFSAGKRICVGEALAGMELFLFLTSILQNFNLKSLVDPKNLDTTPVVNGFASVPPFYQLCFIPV
Chain of κ-opioid receptor (P41145 whole entry): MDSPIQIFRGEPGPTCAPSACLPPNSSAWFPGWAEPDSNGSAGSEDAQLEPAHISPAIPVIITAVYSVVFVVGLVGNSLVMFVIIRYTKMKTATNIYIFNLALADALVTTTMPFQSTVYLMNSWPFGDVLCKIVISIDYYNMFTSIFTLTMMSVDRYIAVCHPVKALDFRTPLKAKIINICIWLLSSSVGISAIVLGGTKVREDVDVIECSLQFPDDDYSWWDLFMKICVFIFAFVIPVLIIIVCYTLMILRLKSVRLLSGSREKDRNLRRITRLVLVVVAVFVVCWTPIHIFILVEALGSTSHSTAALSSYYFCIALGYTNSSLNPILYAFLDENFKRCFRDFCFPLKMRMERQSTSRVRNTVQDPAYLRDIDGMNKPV
Chain of δ-opioid receptor (P41143 whole entry): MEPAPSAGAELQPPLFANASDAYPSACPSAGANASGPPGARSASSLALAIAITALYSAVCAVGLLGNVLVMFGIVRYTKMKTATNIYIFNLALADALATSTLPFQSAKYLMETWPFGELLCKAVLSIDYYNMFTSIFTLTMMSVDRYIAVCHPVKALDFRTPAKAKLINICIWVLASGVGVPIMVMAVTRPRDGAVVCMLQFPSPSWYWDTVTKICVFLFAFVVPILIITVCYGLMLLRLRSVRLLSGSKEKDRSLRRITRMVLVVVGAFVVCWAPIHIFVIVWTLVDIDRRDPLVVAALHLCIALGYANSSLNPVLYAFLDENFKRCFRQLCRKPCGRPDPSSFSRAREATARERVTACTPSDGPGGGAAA
Chain of μ-opioid receptor (P35372 whole entry): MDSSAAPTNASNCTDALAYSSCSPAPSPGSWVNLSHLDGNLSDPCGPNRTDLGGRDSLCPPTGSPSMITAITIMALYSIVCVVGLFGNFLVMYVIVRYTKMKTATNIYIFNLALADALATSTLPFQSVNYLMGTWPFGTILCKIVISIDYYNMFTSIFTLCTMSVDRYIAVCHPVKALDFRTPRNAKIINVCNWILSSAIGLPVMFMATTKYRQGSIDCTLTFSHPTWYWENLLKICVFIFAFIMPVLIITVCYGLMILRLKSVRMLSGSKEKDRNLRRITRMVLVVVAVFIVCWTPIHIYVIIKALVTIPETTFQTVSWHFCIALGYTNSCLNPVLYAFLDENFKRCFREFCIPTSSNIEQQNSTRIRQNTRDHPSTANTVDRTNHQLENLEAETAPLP

Row | increase of the bioavailability of curcumin [1] [%] | SMILES | affinity for μ-opioid receptor (μ-opioid receptor) | affinity for δ-opioid receptor (δ-opioid receptor) | affinity for κ-opioid receptor (κ-opioid receptor) | inhibition of CYP2C9 (CYP2C9)
1 |  | O=c1cc(-c2ccc(O)cc2)oc2cc(O)cc(O)c12 [apigenin, 4′,5,7-trihydroxyflavone] | nonomolar affinity | nonomolar affinity | nonomolar affinity | inhibits the enzyme CYP2C9
2 | 154 | O=C(/C=C/C=C/c1ccc2c(c1)OCO2)N1CCCCC1 [piperine] |  |  |  | 
